Measured values taken from patent publication US20110171172A1, “COMPOUNDS FOR INHIBITING KSP KINESIN ACTIVITY” (priority 2007, published 2011).
pEC50: −log10 of the molar value.

Tested on: HCT116 colon cancer cells
Test: KSP cellular assay (phospho-histone H3 / MPM2 immunofluorescence)
Assay type: cell-based
Conditions: Homo sapiens, HCT-116, 16 hours with drug, percent of cells staining positive for Phos-Histone H3 (ser10) / Phos-MPM2
Procedure: HCT116 colon cancer cells were grown in DMEM:F12 media with 10% heat inactivated FBS at 37 degrees with 5% CO2. Cells were plated at 7,500 cells per well in PDL coated 384-well tissue culture plates. 6 hours later media was removed and new media containing drug was added. Cells were incubated with drug for 16 hours. All further steps were performed at room temperature in the dark. Cells were fixed with 25 ul/well Prefer fixation solution plus 250 nM Hoechst dye and incubated for 30 minutes. The fixation solution was removed and cells were washed with PBS. Cells were then permeabilized with 25 uliwell 0.2% Triton-X in PBS and incubated for 10 minutes. Cells were washed with PBS and then incubated with 25 ul/well PBS containing 3% FBS for 30 minutes. Cells were then stained overnight at 4 degrees with 25 uliwell antibody solution in PBS plus 3% FBS. Antibodies used were Phos-Histone H3 (ser10)-Alexa Flur 488 Conjugate and Phos-MPM2 Texas Red Conjugate. Cells were washed with PBS and then immunofluorescence images captured with HT Pathway microscope. The percent of cells staining positive was calculated and EC50 values for the compounds of the invention that were tested were determined using Excel XLfit.
EC50 Determinations: Dose-response curves were plotted from inhibition data generated each in duplicate, from 8 point serial dilutions of inhibitory compounds. Concentration of compound was plotted against enzyme activity (OD reading). To generate EC50 values, the dose-response curves were then fitted to a standard sigmoidal curve and EC50 values were derived by nonlinear regression analysis.

| SMILES | pEC50 |
| --- | --- |
| CC(=O)N1N=C(c2cc(F)ccc2F)OC12COc1ccccc12 (centres unmarked) [compound 104] | < 6.00 |
| CC(=O)N1N=C(c2cc(F)ccc2F)OC12CCOc1ccccc12 (centres unmarked) [compound 105] | < 6.00 |
| CC(=O)N1N=C(c2cc(F)ccc2F)OC12CCCc1ccccc12 (centres unmarked) [compound 103] | < 6.00 |

Results, then the compound that gave them:

| pEC50 | SMILES |
| --- | --- |
| < 6.00 | CC(=O)N1N=C(c2cc(F)ccc2F)OC12CCCc1sccc12 (centres unmarked) [compound 101] |
| < 6.00 | CC(=O)N1N=C(c2cc(F)ccc2F)OC12CCSc1ccccc12 (centres unmarked) [compound 102] |
